US10123985B2, “Therapeutic strategies for treating mitochondrial disorders” (Whitehead Institute for Biomedical Research, priority 2015, dated 2018)
Entries after “also recorded” stand apart in the source; their conditions may differ.

Legend:
Jurkat cells = experiment: NAD+ and NADH measurements in Jurkat cells; type: cell-based, human; conditions: wild type Jurkat cells, phenformin (10 μM), aspartate (10 mM)
Protocol: Measurement of NAD^+/NADH was done by modification of manufacturer instructions for NAD^+/NADH Glo Assay (Promega). Jurkat cells were incubated in RPMI under the conditions listed for 8 hours before cell extracts were taken. To extract NAD^+/NADH, cells were centrifuged for 1 minute at 300×g, and washed 3 times by quickly resuspending in 15 mL PBS and centrifuging for 1 minute at 300×g. Pelleted samples were extracted in 100 μL ice cold lysis buffer (1% Dodecyltrimethylammonium bromide (DTAB) in 0.2 N NaOH diluted 1:1 with PBS) and frozen at −80° C. To measure NADH, 20 μL of extracts were heated to 75° C. for 30 min in the basic lysis buffer to degrade NAD^+. To measure NAD^+, samples were diluted 1:1 with 0.4 N HCl and incubated at 60° C. for 15 min where acidic conditions will degrade NADH. Following incubations, samples were quenched by adding 20 μL of 0.25 M Tris, 0.2 N HCl (NADH) or 20 μL of 0.5 M Tris base (NAD^+). Manufacturer instructions were then followed to measure NAD^+/NADH.

[1] = test system: ETC-defective cybrid cells; experiment: [U-13C]-L-glutamine isotope tracing of aspartate in cybrid cells; type: cell-based; conditions: [U-13C]-L-glutamine 7 hours, pyruvate (1 mM)
Protocol: FIG. 19. […] Cell line models of ETC dysfunction were cultured in RPMI (supplemented with uridine) with pyruvate (1 mM) or aspartate (10 mM) for 6 days. Relative cell number was determined by normalizing to the pyruvate-supplemented condition. Representative bright-field micrographs of MERRF, CYTB, and 143B ρ0 cells after 6 days in indicated conditions (right) (mean±SD, n=3, **p<0.05). […] Mass isotopomer analysis of aspartate in wild type, phenformin-treated wild type, and ETC-defective cybrid cells cultured for 7 hours with [U-^13C]-L-glutamine (middle) in the presence or absence of pyruvate (1 mM). The fraction of labeled aspartate from [U-^13C]-L-glutamine is indicated (mean±SD, for n=3, **p<0.05) (bottom). OAA, oxaloacetate. […] Immunoblot analysis of wild type, MERRF, and CYTB cybrid cells expressing sgControl and sgGOT1 (top). Raptor was used as a loading control. […] Relative cell number was determined by normalizing to sgControl expressing cell line (mean±SD, for n=3, **p<0.05). […]
Polar metabolites were extracted using 1 ml of ice-cold 80% methanol with 10 ng/ml valine-d8 as an internal standard. […] Relative quantitation of polar metabolites was performed with XCalibur QuanBrowser 2.2 (Thermo Fisher Scientific) using a 5 ppm mass tolerance and referencing an in-house library of chemical standards.

143B CytB cells = experiment: GC-MS of AKB and AHB concentration in the media during proliferation assay; type: cell-based; conditions: media of 143B CytB cells proliferating with AKB
Protocol: FIG. 1. Cytochrome B mutant 143B cybrid cells are auxotrophic for oxidized substrates that can regenerate NAD^+. (A) Proliferation rate of 143B CytB cells was determined in the presence or absence of pyruvate. (left) Cells were normalized to cell number at t=0 when media conditions were applied. (B) A major fate of pyruvate is as a substrate of lactate dehydrogenase (LDH) where it accepts electrons from NADH to produce NAD^+ and lactate. (C) α-Ketobutyrate (AKB) can act as an alternative electron acceptor substrate for LDH, yielding NAD^+ α-hydroxybutyrate (AHB). (D) Proliferation rate for 143B CytB cells in the presence or absence of AKB was determined as in (A). (E) Intracellular ratio of NAD^+/NADH was determined in 143B CytB cells in untreated media or in the presence of pyruvate (Pyr) or AKB. (F) The concentration of AKB and AHB in the media was determined by GC-MS analysis for each day of a proliferation assay of 143B CytB cells in the presence of AKB as in (D). […]
Given the chemical structure differences between AKB and pyruvate, they cannot share direct carbon-fates, thus we reasoned that AKB is likely being used predominantly as an electron acceptor and not as a carbon substrate in metabolic pathways. To verify this we measured the consumption rate of AKB and the excretion rate of the reduced product, α-hydroxybutyrate (AHB), formed upon NAD^+ regeneration (FIG. 1C). […]

143B cells = experiment: Amino acid and TCA cycle metabolite GC-MS analysis, 143B cells; type: cell-based
Protocol: 143B and 143B CytB cells were seeded at 400,000 cells/well in 6 well dishes overnight. The following day, cells were washed 2 times in PBS and media was changed to proliferation assay media with or without the indicated treatments. […] Soluble content was then dried under nitrogen gas. Polar samples were derivatized and measured as detailed in (Lewis). Relative metabolite abundances were determined by integrating ion peak area (Metran) and normalized to norvaline internal extraction standard.

Question: Which “NAD+/NADH ratio in cells with ETC inhibition” value (Jurkat cells) does the source give for `N[C@@H](CC(=O)O)C(=O)O` [aspartate] here?
Answer: The value was “did not restore the NAD/NADH ratio in cells with ETC inhibition; also recorded: does not increase the NAD^+/NADH ratio in cells with ETC inhibition”.

Question: With `CC(=O)C(=O)O` [pyruvate] as the compound, how does the “Aspartate synthesis in ETC-defective cybrid cells” value [1] read?
Answer: Its value is “stimulated aspartate synthesis in the ETC-defective cells; also recorded: stimulates aspartate biosynthesis in cybrid cells with ETC dysfunction”.

Question: How did the “Consumption rate of AKB versus excretion rate of AHB” value (143B CytB cells) turn out when `CCC(=O)C(=O)O` [AKB, α-ketobutyrate] was run?
Answer: The value was “the consumption rate of AKB matched the excretion rate of AHB”.

Question: What about the “Aspartate level with AKB treatment” value (143B cells; 143B CytB cells and inhibitor-treated 143B cells, relative to untreated cells) of the same compound?
Answer: The value was “restored aspartate to levels comparable to, or higher than, untreated cells”.

Question: And the Intracellular aspartate levels (143B cells; rotenone treated 143B cells, 24 hours, AKB or 1 mM asparagine)?
Answer: The Intracellular aspartate levels was “increased intracellular aspartate”.
